Here are results for 17 compounds from PubChem BioAssay AID1259408 (Genetic Toxicology Data Bank (GENE-TOX), 2018).

The source made the active and inactive calls. The rule behind the calls is not given here.

This data set concerns GENE-TOX genotoxicity assays, various organisms and cells. The data set is described as follows: GENE-TOX mutagenicity studies. Particulars: for call: Assay Type: In vivo carcinogenicity studies. The text has this:
GENE-TOX provides genetic toxicology (mutagenicity) test data from expert peer review of open scientific literature for more than 3,000 chemicals from the United States Environmental Protection Agency (EPA). GENE-TOX was established to select assay systems for evaluation, review data in the scientific literature, and recommend proper testing protocols and evaluation procedures for these systems.
GENE-TOX covers the years 1991 - 1998. It is no longer updated.
This is an archive assay for GENE-TOX mutagenicity studies.

Where [1] appears, read: Species/Cell Type: Saccharomyces cerevisiae, Assay Type: Mitotic recombination or gene conversion, Assay Code: YEC+, Evaluation Type: Evaluation A (Pre-1980).
Setting [2] is: Species/Cell Type: Drosophila melanogaster, Assay Type: Sex-linked recessive lethal gene mutation, Assay Code: SRL+, Evaluation Type: Evaluation A (Pre-1980).
Where [3] appears, read: Species/Cell Type: Mammalian polychromatic erythrocytes, Assay Type: Micronucleus test, chromosome aberrations, Assay Code: MNT+, Evaluation Type: Evaluation A (Pre-1980).
Where [4] appears, read: Species/Cell Type: Bacillus subtilis (H17 vs M45), Assay Type: Rec-assay, spot test, DNA effects (bacterial DNA repair), Assay Code: REWT, Evaluation Type: Evaluation A (Pre-1980).
Setting [5] is: Species/Cell Type: Nonhuman, Assay Code: CCG+, Evaluation Type: Evaluation A (Pre-1980).
The mark [6] stands for this setting: Species/Cell Type: Chinese hamster lung (V79) cells, Assay Type: Forward gene mutation at the HPRT or ouabain locus, Assay Code: V79+, Evaluation Type: Evaluation A (Pre-1980).

Consider `NC(Cc1ccc(F)cc1)C(=O)O` (stereo unspecified), for which the mutagenic call is “active; positive” (Species/Cell Type: Aspergillus nidulans, Assay Type: Aneuploidy, chromosome aberrations, Assay Code: ASN+, Evaluation Type: Evaluation A (Pre-1980)); “inactive; negative” (Species/Cell Type: Aspergillus nidulans, Assay Type: Mitotic recombination, Assay Code: ASG-, Evaluation Type: Evaluation A (Pre-1980)); “active; positive” (Species/Cell Type: Neurospora crassa, Assay Type: Aneuploidy, chromosome aberrations, Assay Code: NEN+, Evaluation Type: Evaluation A (Pre-1980)); “active; positive” (Species/Cell Type: Saccharomyces cerevisiae, Assay Type: Aneuploidy, chromosome aberrations, Assay Code: YEN+, Evaluation Type: Evaluation A (Pre-1980)); “active; positive” (Species/Cell Type: Saccharomyces cerevisiae, Assay Type: Forward gene mutation, Assay Code: YEF+, Evaluation Type: Evaluation A (Pre-1980)); “active; positive” under setting [1]. For the same compound, under “Species/Cell Type: Saccharomyces cerevisiae, Assay Type: Reverse gene mutation, Assay Code: YER+, Evaluation Type: Evaluation A (Pre-1980)”, the mutagenic call is “active; positive”.

Turning to `Nc1nc(-c2ccccc2)cs1`, the mutagenic call (Species/Cell Type: Bacillus subtilis (H17 vs M45), Assay Type: Rec-assay, spot test, DNA effects (bacterial DNA repair), Assay Code: REW-, Evaluation Type: Evaluation A (Pre-1980)) is “inactive; negative”.

For the compound `CN(C)N=Nc1ccc(Br)cc1`, the mutagenic call reads like this: under setting [2], “active; positive”; under setting [3], “active; positive”; under setting [1], “active; positive”.

Turning to `Cc1cc(C)cc(C2CO2)c1` (stereo unspecified), the mutagenic call (Species/Cell Type: Human lymphocytes, Assay Type: Sister-chromatid exchange (SCE) in vitro, Assay Code: SCL+D, Dose Response: With dose response, Evaluation Type: Evaluation B (Post-1980)) was “active; positive” and the mutagenic call (Species/Cell Type: Human, Assay Type: Sister-chromatid exchange (SCE) in vitro, Assay Code: SC1+D, Dose Response: With dose response, Evaluation Type: Evaluation B (Post-1980)) was “active; positive”.

Turning to `Nc1ccc(Cl)cc1Cl`, where the note is “Species/Cell Type: Mouse, Sex: Male, Assay Type: Sperm morphology, Assay Code: SPI-, Evaluation Type: Evaluation A (Pre-1980)”, the mutagenic call is “inactive; negative”.

Turning to `Cc1cc(C)cc(OC(=O)N(C)N=O)c1`, the mutagenic call is, setting by setting: (Species/Cell Type: Bacillus subtilis (H17 vs M45T), Assay Type: Rec-assay, spot test, DNA effects (bacterial DNA repair), Assay Code: REX+, Evaluation Type: Evaluation A (Pre-1980)) “active; positive”; (Species/Cell Type: Escherichia coli WP2, Assay Type: Tryptophan reverse gene mutation, Assay Code: WP2+, Evaluation Type: Evaluation A (Pre-1980)) “active; positive”.

Consider `CS(=O)(=O)OCC(O)C(O)COS(C)(=O)=O` (stereo unspecified), for which the mutagenic call was “no conclusion” (Species/Cell Type: Allium cepa, Assay Type: Chromosome aberrations, Assay Code: ALCT, Evaluation Type: Evaluation A (Pre-1980)); “active; positive” (Species/Cell Type: Arabidopsis species, Assay Type: Gene mutation, Assay Code: ARM+, Evaluation Type: Evaluation A (Pre-1980)); “active; positive” (Species/Cell Type: Vicia faba, Assay Type: Chromosome aberrations, Assay Code: VIC+D, Dose Response: With dose response, Evaluation Type: Evaluation A (Pre-1980)).

Consider `Oc1ccc(O)c(O)c1`, for which the mutagenic call (Species/Cell Type: Allium cepa, Assay Type: Chromosome aberrations, Assay Code: ALC+, Evaluation Type: Evaluation A (Pre-1980)) was “active; positive”.

Consider `C/C=C1/C[C@@H](C)[C@@](C)(O)C(=O)OC/C2=C/CN(C)CC[C@@H](OC1=O)C2=O`, for which the mutagenic call (Species/Cell Type: Nonhuman, Assay Type: Sister-chromatid exchange (SCE) in vitro, Assay Code: SC2+D, Dose Response: With dose response, Evaluation Type: Evaluation B (Post-1980)) is “active; positive”.

Take `O=[N+]([O-])c1ccnc2ccccc12`: under “Species/Cell Type: Escherichia coli polA (W3119 vs P3478), Assay Type: Rec-assay, DNA effects (bacterial DNA repair), Assay Code: RE1-, Evaluation Type: Evaluation A (Pre-1980)”, the mutagenic call is “inactive; negative”.

Consider `O=S(=O)(O)c1ccc2c(N=Nc3ccc(S(=O)(=O)O)c4ccccc34)c(O)c(S(=O)(=O)O)cc2c1`, for which the mutagenic call was “no conclusion” under setting [4]; “no conclusion” (Species/Cell Type: Bacillus subtilis (H17 vs M45T), Assay Type: Rec-assay, spot test, DNA effects (bacterial DNA repair), Assay Code: REXT, Evaluation Type: Evaluation A (Pre-1980)); “inactive; negative” (Species/Cell Type: Rodents, Sex: Male, Assay Type: Dominant lethal test, Assay Code: DLT-, Evaluation Type: Evaluation A (Pre-1980)); “inactive; negative” (Species/Cell Type: Saccharomyces cerevisiae, Assay Type: Mitotic recombination or gene conversion, Assay Code: YEC-, Evaluation Type: Evaluation A (Pre-1980)); “inactive; negative” (Species/Cell Type: Salmonella typhimurium (one or more of the five standard strains: TA98, TA100, TA1535, TA1537, and TA1538), Assay Type: Histidine reverse gene mutation, Ames assay, Assay Code: SAL-, Evaluation Type: Evaluation A (Pre-1980)); “inactive; negative” (Species/Cell Type: Syrian hamster embryo (SA7/SHE) cells, Assay Type: Cell transformation, viral enhanced, Assay Code: CT7-, Evaluation Type: Evaluation A (Pre-1980)).

For the compound `O=C1NCCN1/N=C/c1ccc([N+](=O)[O-])o1`, the call under setting [5] was “active; positive”.

As for `Cc1ccc2cc3c(ccc4ccccc43)c3c2c1C(O)C3` (stereo unspecified), the mutagenic call was “active; positive” under setting [6]; “no conclusion” (Species/Cell Type: Salmonella typhimurium (one or more of the five standard strains: TA98, TA100, TA1535, TA1537, and TA1538), Assay Type: Histidine reverse gene mutation, Ames assay, Assay Code: SALT, Evaluation Type: Evaluation A (Pre-1980)). The call (Species/Cell Type: Nonhuman, Assay Code: CCG+L, Evaluation Type: Evaluation A (Pre-1980)) was “active; positive”.

Take `Nc1ccc(N=Nc2cccc(N=Nc3ccc(N)cc3N)c2)c(N)c1`: the mutagenic call under setting [4] is given as “no conclusion”.

For `CC(C)=CCOc1c2occc2cc2ccc(=O)oc12`, the mutagenic call by setting is: (Species/Cell Type: Human lymphocytes, Assay Type: Sister-chromatid exchange (SCE) in vitro, Assay Code: SCL+, Evaluation Type: Evaluation B (Post-1980)) “active; positive”; (Species/Cell Type: Human, Assay Type: Sister-chromatid exchange (SCE) in vitro, Assay Code: SC1+, Evaluation Type: Evaluation B (Post-1980)) “active; positive”.

Regarding `O[C@@H]1[C@H]2O[C@H]2c2cc3c(ccc4ccccc43)cc2[C@H]1O`, the mutagenic call under setting [6] is “active; positive”; the mutagenic call (Species/Cell Type: Salmonella typhimurium (one or more of the five standard strains: TA98, TA100, TA1535, TA1537, and TA1538), Assay Type: Histidine reverse gene mutation, Ames assay, Assay Code: SAL+, Evaluation Type: Evaluation A (Pre-1980)) was “active; positive”.

`CN(C)P(=O)(N(C)C)N(C)C`: the mutagenic call is, setting by setting: under setting [2], “active; positive”; (Species/Cell Type: Drosophila melanogaster, Sex: Male, Assay Type: Heritable translocation test, chromosome aberrations, Assay Code: DHT+, Evaluation Type: Evaluation A (Pre-1980)) “active; positive”; under setting [3], “active; positive”; (Species/Cell Type: Mouse, Sex: Male, Assay Type: Sperm morphology, Assay Code: SPI+, Evaluation Type: Evaluation A (Pre-1980)) “active; positive”; (Species/Cell Type: Nonhuman, Assay Type: Sister-chromatid exchange (SCE) in vitro, Assay Code: SC2+D*, Activation: With metabolic activation, Dose Response: With dose response, Evaluation Type: Evaluation B (Post-1980)) “active; positive”; (Species/Cell Type: Rabbit, Sex: Male, Assay Type: Sperm morphology, Assay Code: SPR+, Evaluation Type: Evaluation A (Pre-1980)) “active; positive”. Further, the mutagenic call is, setting by setting: (Species/Cell Type: Rodents, Sex: Male, Assay Type: Dominant lethal test, Assay Code: DLT+, Evaluation Type: Evaluation A (Pre-1980)) “active; positive”; (Species/Cell Type: Tradescantia species, Assay Type: Gene mutation, Assay Code: TRM+D, Dose Response: With dose response, Evaluation Type: Evaluation A (Pre-1980)) “active; positive”. The call under setting [5] was “active; positive”.
